Reference: patent US7781423B2, “Compounds to promote regeneration of bone marrow” (priority 2007, dated 2010)
Where two headings read alike, the source gives them in different places.

Key:
[1] = tested on: cyclophosphamide-treated mice; test: Blood profile in cyclophosphamide-treated mice; assay type: in vivo, C57B1 mice; conditions: for effect on blood profile (WBC, PTL): cyclophosphamide-treated mice, CCompound26 at a smaller dose than the two others
Experimental: Twelve week old female C57B1 mice were used for the experiments. Each drug was administered intraperitoneally once a day for 5 consecutive days. In the second, third, fourth and fifth groups, mice were administered 120 mg/kg of cyclophosphamide (CP). In a third group, mice were also administered 4.5 mg/kg of CCompound1. In a fourth group, mice were also administered 4.5 mg/kg of CCompound3. In a fifth group, mice were also administered 2.0 mg/kg of CCompound26. In the first group, mice received no treatment. Each group included 5 animals. After 3 hours of the last treatments (on day 5), blood samples were collected from the ocular venous plexus of ether-anesthetized mice by retro-orbital venipuncture in heparanized tubes. Complete cell counts (RBC, red blood cell; WBC, white blood cell; PTL, platelet) were determined with a Sysmex F-800 hematology analyzer (To a Medical Electronics Co. LTD, Kobe, Japan). All data shown in Table 2 are the average of 5 independent determinations.

[2] = tested on: MXT mammary tumor; assay type: in vivo; conditions: for effect on body weight: MXT tumor-bearing, CP-treated mice, by day 22; for Total weight / Tumor weight / Body weight: CP 120-mg/kg i.p. x8 daily from day 6, CC compounds s.c. with each CP (1 and 3: 4.5-mg/kg, 26: 2.0-mg/kg); for Body weight: total minus tumor weight
Experimental: This experiment was designed to determine whether in a tumor model CC compounds could prevent cyclophosphamide-induced loss of body weight resulting from the depression of blood marrow function. Specified pathogen free (SPF) hygienic category colonies of first generation hybrid BDF1 (C57B1 female×DBA/2 male) adult female mice, weighing 23-24 g, were used. The animals were kept in macrolon cages at 22-24° C. (45-55% humidity), with a lighting regimen of 12/12 h light/dark. […] The animals used in these studies were cared for according to the “Guiding Principles for the Care and Use of Animals” based upon the Helsinki declaration.
MXT mammary tumor pieces (containing about 10^6 tumor cells) were implanted subcutaneously to develop the tumors. After six days when the tumor-bearing mice were first treated, the sizes of the tumors were in the 0.26-0.30 cm^3 range. All compounds used were dissolved in 0.9% sodium chloride and applied subcutaneously (CC compounds) or intraperitoneally (CP) in 50 μl volume. Tumor volume was determined by using calipers in three dimensions; this technique is well known to one having ordinary skill in the art. Tumor volume was calculated according to the generally accepted formula: V=a^2×b×π/6, where “a” and “b” mean the shortest and longest diameter, respectively, of the measured tumor.
In the first group, animals received no treatment. In the second group, mice were administered 120-mg/kg of CP on day 6 followed by seven consecutive daily treatments with the same dose. In the third group, each treatment with CP was associated with administration of 4.5-mg/kg of CCompound1. In the fourth group, each treatment with CP was associated with administration of 4.5-mg/kg of CCompound3. In the fifth group, each treatment with CP was associated with administration of 2.0-mg/kg of CCompound26. Each group included 7 mice. All data represent the average of 7 determinations (one determination with each mouse in the group).

[3] = Solubility in water
[4] = tested on: healthy mice; test: Toxicity in healthy mice; assay type: in vivo; conditions: for well tolerated maximal dose: mice weighing about 25 g
Experimental: Accordingly, a well tolerated maximal dose for CCompound1 or CCompound3 in mice (weighing about 25 g) is […] which corresponds to a dose of 4.6 mg/kg. Therapeutically effective concentrations of CC compounds in humans will exert significant promoting effects on bone marrow regeneration without causing toxicity in other normal healthy tissues.

[5] = tested on: healthy mice; test: Toxicity in healthy mice; assay type: in vivo; conditions: 1,000-1,500 μmole doses
[6] = tested on: human cancer patients; conditions: following stem cell transplantation; cited from earlier work
[7] = i.p. once a day for 5 days, CP 120 mg/kg, CCompound1, 3: 4.5 mg/kg, CCompound26: 2.0 mg/kg, blood 3 hours after last treatment (day 5), 5 animals
[8] = day 6 after tumor transplantation (first treatment day)
[9] = day 8 after tumor transplantation
[10] = day 11 after tumor transplantation
[11] = day 15 after tumor transplantation
[12] = day 18 after tumor transplantation
[13] = day 22 after tumor transplantation
[14] = single 450 μmole (about 4.6 mg/kg) or daily 400 μmole for 5 consecutive days

With `O=P1(N(CCCl)CCCl)NCCCO1` (centres unmarked) [CP, cyclophosphamide] the “effect on blood profile (WBC, PTL)” value [1] was “decreases both WBC and PTL numbers”, the PTL [1, 7] was 404 ± 55 ×10^3/μl and the RBC [1, 7] was 8.1 ± 0.9 ×10^6/μl. For the same molecule, the WBC [1, 7] was 3.2 ± 0.7 ×10^6/μl, the “effect on tumor weight” value ([2]; MXT tumor model) was “effectively decreased tumor weight” and the “effect on body weight” value [2] was “lost significant amounts of weight”. For the same molecule, the Total weight [2, 8] was 22.4 grams, the Tumor weight [2, 8] was 0.2 grams and the Body weight [2, 8] was 22.2 grams. It also gave a Total weight [2, 9] of 21.8 grams, a Tumor weight [2, 9] of 0.2 grams and a Body weight [2, 9] of 21.6 grams. The Total weight [2, 10] was 20.2 grams, the Tumor weight [2, 10] was 0.1 grams and the Body weight [2, 10] was 20.1 grams. It also gave a Total weight [2, 11] of 19.9 grams, a Tumor weight [2, 11] of 0.2 grams and a Body weight [2, 11] of 19.7 grams. The Total weight [2, 12] was 18.8 grams, the Tumor weight [2, 12] was 0.1 grams and the Body weight [2, 12] was 18.7 grams. It also gave a Total weight [2, 13] of 18.1 grams, a Tumor weight [2, 13] of 0.1 grams and a Body weight [2, 13] of 18.0 grams.

For `C=CC[N+](CC)(CC)CC/C=C1/c2ccccc2Sc2ccc(C)cc21.[Br-]` [CCcompound26, N,N-Diethyl-N-allyl-3-(2-methyl-9H-thioxanthen-9-ylidene)-propane-1-aminium bromide], the solubility in water [3] was “water-soluble”, the “effect on cyclophosphamide-induced decrease in white blood cell and platelet counts” value ([1]; 2.0 mg/kg) was “partially reversed” and the “effect on blood profile (WBC, PTL)” value [1] was “least effective”. The “toxic effects at the effective dose” value ([2]; 2.0 mg/kg, inferred from prevented body weight loss) was “does not exert significant toxic effects” and the “effect on body weight” value [2] was “prevented body weight loss”.

With `CC[N+](C)(CC)CCOCc1ccc2sc3ccccc3c(=O)c2c1.[I-]` [CCcompound3] the solubility in water [3] was “soluble in water”, the “well tolerated maximal dose” value [4] was 450 μmole/animal and the “well tolerated maximal dose” value ([4]; corresponds to 450 μmole/animal) was 4.6 mg/kg. For the same molecule, the “change in the composition of various blood constituents” value [4, 14] was “did not cause any significant change”, the “pathological alterations in the liver, brain, kidney, heart, spleen, intestine, and lung” value [4, 14] was “did not induce significant pathological alterations” and the “effect on body weight” value [2] was “body weight gain”. The “tissue alterations at high doses” value [5] was “mild parenchymal degeneration in the heart, focal hypostasis and chronic bronchopneumonia”.

B1: granulocyte-colony stimulating factor (protein, UniProt P09919 31-207, looked up)
Granulocyte …: TPLGPASSLPQSFLLKCLEQVRKIQGDGAALQEKLVSECATYKLCHPEELVLLGHSLGIPWAPLSSCPSQALQLAGCLSQLHSGLFLYQGLLQALEGISPELGPTLDTLQLDVADFATTIWQQMEELGMAPALQPTQGAMPAFASAFQRRAGGVLVASHLQSFLEVSYRVLRHLAQP
notes: cytokine that can reduce the duration and severity of cyclophosphamide-induced neutropenia
In the case of B1, the “time to recover the platelet count to about 100,000 per 1 μl” value [6] is listed as “about 14 days” and the “time to recover the white blood cell count to 2,500 per 1 μl (mm^3)” value [6] is listed as “about 10 days”.
